Laboratory results: patent publication US20240150362A1, “Substituted Pyrrolotriazines” (Molecure S.A., priority 2022, published 2024)
Structures can show the parent of a compound that is named as a salt.

Biological target: T1, full-length USP7 (Homo sapiens, UniProt Q93009)
T1 construct: A 45 μl reaction volume containing full-length USP7 (0.5-1.0 nM)
Experiment: Enzymatic assay to determine IC50 of USP7 inhibitors (Ubiquitin-Rhodamine 110 cleavage)
Format: biochemical
Conditions: full-length USP7 0.5-1.0 nM, 0.5 μM Ubiquitin-Rhodamine 110, 30-60 min at 25° C.
Procedure: Enzymatic Assay to Determine IC50 of USP7 Inhibitors
The IC50 is the concentration of an inhibitor where the measured enzyme activity is reduced by half. In the case of USP7 deubiquitinase, the IC50 of an USP7 inhibitor is the molar concentration of the compound that inhibits 50% of the activity observed in a USP7-mediated-ubiquitin-rhodamine cleavage assay. For the inhibitors disclosed herein, their potency was measured using the following method.
A 45 μl reaction volume containing full-length USP7 (0.5-1.0 nM) in 50 mM HEPES pH 7.5, 150 mM NaCl, 2 mM DTT, 1 mg/ml BSA and 0.05% Tween20 was assembled in wells of 96 well half area black flat bottom plates. Test compounds were first dissolved to 30 mM stocks in DMSO and subsequently introduced to enzyme 15 min after USP7 incubation with DTT at room temperature. The enzymatic reaction was started by adding 0.5 μM Ubiquitin-Rhodamine 110 (final concentration) and allowed to proceed for 30-60 min at 25° C., 250 RPM shaking before Rhodamine fluorescence (485 nm excitation/535 nm emission) was measured using Tecan Spark M10 plate reader. The IC50 values were determined by data fitting to variable slope model four-parameter dose-response curve using GraphPad 7.05.

T1 sequence (Q93009 whole entry): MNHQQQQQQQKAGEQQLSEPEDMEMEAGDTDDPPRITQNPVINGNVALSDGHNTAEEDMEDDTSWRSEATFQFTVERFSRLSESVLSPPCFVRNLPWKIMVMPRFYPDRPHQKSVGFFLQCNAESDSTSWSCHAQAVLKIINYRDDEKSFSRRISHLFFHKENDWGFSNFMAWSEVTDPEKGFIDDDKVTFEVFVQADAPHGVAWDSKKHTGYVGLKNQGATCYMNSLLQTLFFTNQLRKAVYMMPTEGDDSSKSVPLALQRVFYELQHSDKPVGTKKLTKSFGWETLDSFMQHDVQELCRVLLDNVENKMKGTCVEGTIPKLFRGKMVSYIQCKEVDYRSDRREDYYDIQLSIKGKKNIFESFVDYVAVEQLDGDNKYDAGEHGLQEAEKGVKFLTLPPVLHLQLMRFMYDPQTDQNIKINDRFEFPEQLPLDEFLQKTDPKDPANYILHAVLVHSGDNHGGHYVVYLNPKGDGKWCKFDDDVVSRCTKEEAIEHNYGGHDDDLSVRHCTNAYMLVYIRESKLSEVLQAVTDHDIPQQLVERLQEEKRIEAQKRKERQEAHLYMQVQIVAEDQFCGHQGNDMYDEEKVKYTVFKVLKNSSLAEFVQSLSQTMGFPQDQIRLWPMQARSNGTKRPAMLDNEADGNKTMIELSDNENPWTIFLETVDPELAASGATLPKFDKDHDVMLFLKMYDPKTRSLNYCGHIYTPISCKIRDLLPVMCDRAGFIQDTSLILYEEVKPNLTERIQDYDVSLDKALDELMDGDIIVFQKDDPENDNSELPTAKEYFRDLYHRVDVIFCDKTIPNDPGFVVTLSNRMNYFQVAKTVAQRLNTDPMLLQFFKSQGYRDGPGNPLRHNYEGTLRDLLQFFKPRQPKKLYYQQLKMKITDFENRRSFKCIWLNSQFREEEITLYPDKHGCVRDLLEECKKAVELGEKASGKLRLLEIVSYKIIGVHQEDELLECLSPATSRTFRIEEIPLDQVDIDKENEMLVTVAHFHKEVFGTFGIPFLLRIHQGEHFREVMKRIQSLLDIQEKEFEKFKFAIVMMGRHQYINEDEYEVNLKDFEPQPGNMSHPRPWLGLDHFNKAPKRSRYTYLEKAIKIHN

Row | Structure (SMILES) | IC50 [nM]
1 | Cc1cc(Cl)cc(-c2ncnn3cc(CN4C(=O)C5C(C4=O)C5(C)C)cc23)c1CC1CNCC2(CC2)O1 (racemic) [Example 46, 3-((4-(2-((4-oxa-7-azaspiro[2.5]octan-5-yl)methyl)-5-chloro-3-methylphenyl)pyrrolo[2,1-f][1,2,4]triazin-6-yl)methyl)-6,6-dimethyl-3-azabicyclo[3.1.0]hexane-2,4-dione hydrochloride] | < 500
2 | Cc1cc(Cl)cc(-c2ncnn3cc(CN4C(=O)C5C(C4=O)C5(C)C)cc23)c1CC1CNCC(C)(C)O1 (racemic) [Example 50, 3-((4-(5-chloro-2-((6,6-dimethylmorpholin-2-yl)methyl)-3-methylphenyl)pyrrolo[2,1-f][1,2,4]triazin-6-yl)methyl)-6,6-dimethyl-3-azabicyclo[3.1.0]hexane-2,4-dione hydrochloride] | < 500
3 | CC1(C)C2C(=O)N(Cc3cc4c(-c5cc(Cl)cc6c5N(C5CCNC5)CCC6)ncnn4c3)C(=O)C21 (racemic) [Example 51, 3-((4-(6-chloro-1-(pyrrolidin-3-yl)-1,2,3,4-tetrahydroquinolin-8-yl)pyrrolo[2,1-f][1,2,4]triazin-6-yl)methyl)-6,6-dimethyl-3-azabicyclo[3.1.0]hexane-2,4-dione hydrochloride] | < 500
4 | Cc1cc(Cl)cc(-c2ncnn3cc(Cn4c(=O)ccn(C)c4=O)cc23)c1CC1CNCCO1 (racemic) [Example 60, 3-((4-(5-chloro-3-methyl-2-(morpholin-2-ylmethyl)phenyl)pyrrolo[2,1-f][1,2,4]triazin-6-yl)methyl)-1-methylpyrimidine-2,4(1H,3H)-dione hydrochloride] | < 500
5 | Cc1cc(Cl)cc(-c2ncnn3cc(Cn4c(=O)ccn(CC(F)(F)F)c4=O)cc23)c1CC1CNCCO1 (racemic) [Example 68, 3-((4-(5-chloro-3-methyl-2-(morpholin-2-ylmethyl)phenyl)pyrrolo[2,1-f][1,2,4]triazin-6-yl)methyl)-1-(2,2,2-trifluoroethyl)pyrimidine-2,4(1H,3H)-dione hydrochloride] | < 500
6 | CC1(C)C2C(=O)N(Cc3cc4c(-c5cc(Cl)cc6ccn(C[C@@H]7CNCCO7)c56)ncnn4c3)C(=O)C21 (single isomer, unassigned) [Example 30, dihydrochloride] | < 500
7 | Cc1cc(Cl)cc(-c2ncnn3cc(CN4C(=O)C5C(C4=O)C5(C)C)cc23)c1CC1CN[C@H](C)CO1 (single isomer, unassigned) [Example 41, hydrochloride] | < 500
8 | CC1(C)C2C(=O)N(Cc3cc4c(-c5cc(Cl)cc6c5N(C5CCNC5)CCC6)ncnn4c3)C(=O)C21 (single isomer, unassigned) [Example 66, 3-((4-(6-chloro-1-(pyrrolidin-3-yl)-1,2,3,4-tetrahydroquinolin-8-yl)pyrrolo[2,1-f][1,2,4]triazin-6-yl)methyl)-6,6-dimethyl-3-azabicyclo[3.1.0]hexane-2,4-dione hydrochloride] | < 500
9 | CC1(C)C2C(=O)N(Cc3cc4c(-c5cc(Cl)cc6c5N(C5CCNC5)CCC6)ncnn4c3)C(=O)C21 (single isomer, unassigned) [Example 67, 3-((4-(6-chloro-1-(pyrrolidin-3-yl)-1,2,3,4-tetrahydroquinolin-8-yl)pyrrolo[2,1-f][1,2,4]triazin-6-yl)methyl)-6,6-dimethyl-3-azabicyclo[3.1.0]hexane-2,4-dione hydrochloride] | < 500
10 | Cc1cc(Cl)cc(-c2ncnn3cc(Cn4c(=O)ccn(C)c4=O)cc23)c1C[C@@H]1CNCCO1 (single isomer, unassigned) [Example 82, hydrochloride] | < 500
11 | Cc1cc(Cl)cc(-c2ncnn3cc(Cn4c(=O)ccn(CC(F)(F)F)c4=O)cc23)c1C[C@@H]1CNCCO1 (single isomer, unassigned) [Example 83, hydrochloride] | < 500
12 | Cc1cc(Cl)cc(-c2ncnn3cc(Cn4c(=O)ccn(C(C)C)c4=O)cc23)c1C[C@@H]1CNCCO1 (single isomer, unassigned) [Example 89, hydrochloride] | < 500
13 | CCn1ccc(=O)n(Cc2cc3c(-c4cc(Cl)cc(C)c4C[C@@H]4CNCCO4)ncnn3c2)c1=O (single isomer, unassigned) [Example 104, hydrochloride] | < 500
14 | [2H]C([2H])([2H])n1ccc(=O)n(Cc2cc3c(-c4cc(Cl)cc(C)c4C[C@@H]4CNCCO4)ncnn3c2)c1=O (single isomer, unassigned) [Example 105, hydrochloride] | < 500
15 | Cc1cc(Cl)cc(-c2ncnn3cc(Cn4c(=O)ccn(C5CC5)c4=O)cc23)c1CC1CNC[C@H](C)O1 (single isomer, unassigned) [Example 106, hydrochloride] | < 500
16 | Cc1cc(Cl)cc(-c2ncnn3cc(Cn4c(=O)ccn(C5CC5)c4=O)cc23)c1C[C@@H]1CNCCO1 (single isomer, unassigned) [Example 107, hydrochloride] | < 500
17 | Cc1cc(Cl)cc(-c2ncnn3cc(Cn4c(=O)c(F)cn(C)c4=O)cc23)c1CC1CNC[C@H](C)O1 (single isomer, unassigned) [Example 108, hydrochloride] | < 500
18 | Cc1cc(Cl)cc(-c2ncnn3cc(Cn4c(=O)ccn(C)c4=O)cc23)c1CC1CN[C@@H](C)CO1 (single isomer, unassigned) [Example 110, hydrochloride] | < 500
19 | Cc1cc(Cl)cc(-c2ncnn3cc(Cn4c(=O)ccn(C(C)C)c4=O)cc23)c1CC1CN[C@@H](C)CO1 (single isomer, unassigned) [Example 113, hydrochloride] | < 500
20 | CCn1ccc(=O)n(Cc2cc3c(-c4cc(Cl)cc(C)c4CC4CNC[C@H](C)O4)ncnn3c2)c1=O (single isomer, unassigned) [Example 114, hydrochloride] | < 500
21 | Cc1cc(Cl)cc(-c2ncnn3cc(Cn4c(=O)c(C)cn(C)c4=O)cc23)c1CC1CNC[C@H](C)O1 (single isomer, unassigned) [Example 115, hydrochloride] | < 500
22 | Cc1cc(Cl)cc(-c2ncnn3cc(CN4C(=O)CN(C)CC4=O)cc23)c1CC1CNC[C@H](C)O1 (single isomer, unassigned) [Example 117, hydrochloride] | < 500
23 | Cc1cc(Cl)cc(-c2ncnn3cc(Cn4c(=O)cc[nH]c4=O)cc23)c1C[C@@H]1CNCCO1 (single isomer, unassigned) [Example 124, hydrochloride] | < 500
24 | C[C@H]1CNCC(Cc2c(Cl)cc(Cl)cc2-c2ncnn3cc(Cn4c(=O)ccn(C)c4=O)cc23)O1 (single isomer, unassigned) [Example 126, hydrochloride] | < 500

Biological target: T1, full-length USP7
Experiment: Enzymatic assay to determine % inhibition of USP7 activity at 1 μM test compound (Ubiquitin-Rhodamine 110 cleavage)
Format: biochemical
Conditions: 1 μM of the test compound; given where IC50 has not been determined yet; mean of two repetitions
Procedure, shortened: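 Full-length USP7 (0.5-1.0 nM) was preincubated 15 min with DTT in HEPES pH 7.5 buffer, and compound was added at a final 1 μM. Ubiquitin-Rhodamine 110 (0.5 μM final) was then cleaved for 30-60 min at 25° C., read at 485/535 nm. % inhibition is the mean of two repetitions.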

Row | Structure (SMILES) | inhibition at 1 µM [%]
25 | Cc1cc(F)cc(-c2ncnn3cc(Cn4c(=O)ccn(C)c4=O)cc23)c1CC1CNC[C@H](C)O1 (stereo partly drawn) [Example 128, 3-((4-(5-fluoro-3-methyl-2-(((6S)-6-methylmorpholin-2-yl)methyl)phenyl)pyrrolo[2,1-f][1,2,4]triazin-6-yl)methyl)-1-methylpyrimidine-2,4(1H,3H)-dione hydrochloride] | 20 to 49
26 | Cc1nc(C(F)(F)F)cc(-c2ncnn3cc(Cn4c(=O)ccn(C)c4=O)cc23)c1OC1CCCNC1 (centres unmarked) [Example 129, 1-methyl-3-((4-(2-methyl-3-(piperidin-3-yloxy)-6-(trifluoromethyl)pyridin-4-yl)pyrrolo[2,1-f][1,2,4]triazin-6-yl)methyl)pyrimidine-2,4(1H,3H)-dione hydrochloride] | < 20
